# Patent US20230406860A1, “HETEROCYCLIC SPIRO COMPOUNDS AND METHODS OF USE” (AMGEN INC., priority 2020, published 2023)
# What was measured:
# [1] = target: GDP-bound KRAS protein (aa 1-169), containing both G12C and C118A amino acid substitutions (Homo sapiens, UniProt P01116, C118A/G12C); experiment: Coupled nucleotide exchange assay (SOS-mediated, AlphaScreen); assay type: biochemical; details: 2 h compound pre-incubation; read-out: Avg 2 h Coupled exchange IC50
# Description: Coupled Nucleotide Exchange Assay:
# For all subsequent steps, DTT was added to the reaction buffer at a final concentration of 1 mM. […] The assay plates were then read on a plate reader measuring luminescence signal. Signal intensity of compound-containing wells were normalized to DMSO control, and data were analyzed using a 4-parameter logistic model to calculate IC50 values.
# [2] = tested on: MIA PaCa-2 (human pancreatic carcinoma) cells; experiment: Cell viability assay (CellTiter-Glo), MIA PaCa-2; assay type: cell-based; details: 72 h
# Description: (§1) MIA PaCa-2 (human pancreatic carcinoma; ATCC CRL-1420) or A549 (human lung carcinoma; ATCC CCL-185) cells were cultured in RPMI 1640 medium containing 10% fetal bovine serum and 1× penicillin/streptomycin/L-glutamine. Cells were seeded in 384-well plates at a density of 1.67E+04 cells/mL and incubated at 37° C., 5% CO2, overnight. Serially-diluted compound or DMSO was added to the cells, and plates were incubated at 37° C., 5% CO2 for 72 h. Cell viability was measured using a CellTiter-Glo® Luminescent Cell Viability Assay kit (Promega) according to the manufacturer's protocol. The luminescence signal of treated samples was normalized to DMSO control, and data were analyzed using a 4-parameter logistic model to calculate IC50 values.
# [3] = tested on: A549 (human lung carcinoma) cells; experiment: Cell viability assay (CellTiter-Glo), A549; assay type: cell-based; details: 72 h
# Description: as §1
# GDP-bound KRAS protein (aa 1-169), containing both G12C and C118A amino acid substitutions, sequence (P01116 1-169 isoform P01116-2 G12C/C118A): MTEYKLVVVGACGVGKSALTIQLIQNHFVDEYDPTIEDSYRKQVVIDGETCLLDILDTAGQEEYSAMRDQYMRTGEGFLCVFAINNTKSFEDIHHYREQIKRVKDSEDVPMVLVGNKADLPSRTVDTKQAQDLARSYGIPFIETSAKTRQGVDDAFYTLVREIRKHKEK
SMILES,IC50 [1],IC50 [2],IC50 [3]
"C=CC(=O)N1CC2(CCN(c3nc4c(c(N[C@H](CC(=O)NC)CC(C)C)n3)CCC(C(F)(F)F)C4)C2)C1 (stereo partly drawn) [Example 1-32, (3S)-N,5-dimethyl-3-((2-(2-(2-propenoyl)-2,6-diazaspiro[3.4]octan-6-yl)-7-(trifluoromethyl)-5,6,7,8-tetrahydro-4-quinazolinyl)amino)hexanamide]",57 nM,24 nM,> 25000 nM
"C=CC(=O)N1CC2(CCN(c3nc4c(c(N[C@H](CC(=O)NC)CC(C)C)n3)CC(C)CC4)C2)C1 (stereo partly drawn) [Example 1-33, (3S)-N,5-dimethyl-3-((6-methyl-2-(2-(2-propenoyl)-2,6-diazaspiro[3.4]octan-6-yl)-5,6,7,8-tetrahydro-4-quinazolinyl)amino)hexanamide]",446 nM,350 nM,> 25000 nM
"C=CC(=O)N1CC2(CCN(c3nc(N[C@H](CC(=O)NC)CC(C)C)c4ncc(C)cc4n3)C2)C1 [Example 1-34, (3S)-N,5-dimethyl-3-((7-methyl-2-(2-(2-propenoyl)-2,6-diazaspiro[3.4]octan-6-yl)pyrido[3,2-d]pyrimidin-4-yl)amino)hexanamide]",372 nM,217 nM,> 25000 nM
"C=CC(=O)N1CC2(CCN(c3nc(N[C@H](CC(=O)NC)CC(C)C)c4ccc(C(F)(F)F)cc4n3)C2)C1 [Example 1-35, (3S)-N,5-dimethyl-3-((2-(2-(2-propenoyl)-2,6-diazaspiro[3.4]octan-6-yl)-7-(trifluoromethyl)-4-quinazolinyl)amino)hexanamide]",142 nM,179 nM,10500 nM
"C=CC(=O)N1CC2(CCN(c3nc(N[C@H](CC(=O)NC)CC(C)C)c4ncc(-c5nccs5)cc4n3)C2)C1 [Example 1-36, (3S)-N,5-dimethyl-3-((2-(2-(2-propenoyl)-2,6-diazaspiro[3.4]octan-6-yl)-7-(1,3-thiazol-2-yl)pyrido[3,2-d]pyrimidin-4-yl)amino)hexanamide]",23 nM,379 nM,> 5000 nM
"C=CC(=O)N1CC2(CCN(c3nc(N[C@H](CC(=O)NC)CC(C)C)c4ncccc4n3)C2)C1 [Example 1-37, (3S)-N,5-dimethyl-3-((2-(2-(2-propenoyl)-2,6-diazaspiro[3.4]octan-6-yl)pyrido[3,2-d]pyrimidin-4-yl)amino)hexanamide]",743 nM,632 nM,> 25000 nM
"C=CC(=O)N1CC2(CCN(c3nc(N[C@H](CC(=O)NC)CC(C)C)c4ncc(C5CC5)cc4n3)C2)C1 [Example 1-38, (3S)-3-((7-cyclopropyl-2-(2-(2-propenoyl)-2,6-diazaspiro[3.4]octan-6-yl)pyrido[3,2-d]pyrimidin-4-yl)amino)-N,5-dimethylhexanamide]",60 nM,959 nM,> 5000 nM
"C=CC(=O)N1CC2(CCN(c3nc4c(c(N[C@H](Cc5nc(C)no5)CC(C)C)n3)CCC(C)(C)C4)C2)C1 [Example 1-39, 1-(6-(7,7-dimethyl-4-(((2S)-4-methyl-1-(3-methyl-1,2,4-oxadiazol-5-yl)-2-pentanyl)amino)-5,6,7,8-tetrahydro-2-quinazolinyl)-2,6-diazaspiro[3.4]octan-2-yl)-2-propen-1-one]",685 nM,790 nM,> 25000 nM
"C=CC(=O)N1CC2(CCN(c3nc(N[C@H](CC(=O)NC)CC(C)C)c4ccc(C5CC5)cc4n3)C2)C1 [Example 1-40, (3S)-3-((7-cyclopropyl-2-(2-(2-propenoyl)-2,6-diazaspiro[3.4]octan-6-yl)-4-quinazolinyl)amino)-N,5-dimethylhexanamide]",84 nM,169 nM,19000 nM
"C=CC(=O)N1CC2(CCN(c3nc(N[C@H](CC(=O)NC)CC(C)C)c4cc(C)ccc4n3)C2)C1 [Example 1-41, (3S)-N,5-dimethyl-3-((6-methyl-2-(2-(2-propenoyl)-2,6-diazaspiro[3.4]octan-6-yl)-4-quinazolinyl)amino)hexanamide]",779 nM,1230 nM,> 25000 nM
